Molecular target: T1, CD33 (Homo sapiens, UniProt P20138)
T1 construct: purchased BioLegend 750106
Experiment: CD33 activity competitive binding assay (ELISA)
Conditions: immobilized CD33-Fc; competition with Neu5Acα2-3Galβ1-3GalNAc-PAA-biotin; streptavidin/horseradish peroxidase, TMB, absorbance 450 nm
Method: The assay to screen for and characterize glycomimetic ligands of CD33 is a competitive binding assay, which allows the determination of IC50 values. CD33-Fc (BioLegend catalog item 750106) was immobilized in 96 well microtiter plates by incubation at 4° C. overnight. To reduce non-specific binding, bovine serum albumin was added to each well and incubated at room temperature for 3 hours. The plate was washed and serial dilutions of the test compounds were added to the wells in the presence of biotinylated polyacrylamide conjugated with Neu5Acα2-3Galβ1-3GalNAc-PAA-biotin (GlycoTech catalog item 01-088). After incubation at room temperature for 2 hours and washing, streptavidin/horseradish peroxidase was added to each well and incubated at room temperature for 30 minutes followed by an additional wash.
To determine the amount of glycopolymer bound to the immobilized CD33, the peroxidase substrate […] tetramethylbenzidine (TMB) was added. After 5 minutes, the enzyme reaction was stopped by the addition of H3PO4, and the absorbance of light at a wavelength of 450 nm was determined. The concentration of test compound required to inhibit binding by 50% was determined and reported as the IC50 value.

T1 sequence (P20138 18-364): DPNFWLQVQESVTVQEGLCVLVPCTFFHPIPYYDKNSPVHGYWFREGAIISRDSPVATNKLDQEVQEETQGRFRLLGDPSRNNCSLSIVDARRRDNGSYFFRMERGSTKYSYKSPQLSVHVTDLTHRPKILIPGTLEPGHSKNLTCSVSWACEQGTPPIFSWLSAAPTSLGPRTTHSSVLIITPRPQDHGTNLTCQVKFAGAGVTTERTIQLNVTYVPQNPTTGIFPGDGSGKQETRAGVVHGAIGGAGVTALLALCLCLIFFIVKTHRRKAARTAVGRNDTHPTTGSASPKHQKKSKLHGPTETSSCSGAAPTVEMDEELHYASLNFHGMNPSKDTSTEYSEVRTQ

IC50	Structure (SMILES)
54 µM	Cc1cc(C(=O)NC[C@@H](O)[C@@H](O)C2O[C@@](OCCCN(Cc3ccccc3)C(=O)CCOCCOCCOCCOCCOCCOCCN=[N+]=[N-])(C(=O)O)CC(O)[C@H]2NC(=O)Cn2cc(C3CCCCC3)nn2)cc(C)c1O (some centres unmarked) [Compound 13]
27 µM	Cc1cc(C(=O)NC[C@@H](O)[C@@H](O)C2O[C@@](OCCCN(CCc3ccccc3)C(=O)CCOCCOCCOCCOCCOCCOCCN=[N+]=[N-])(C(=O)O)CC(O)[C@H]2NC(=O)Cn2cc(C3CCCCC3)nn2)cc(C)c1O (some centres unmarked) [Compound 15]

Reference: patent publication US20230167150A1, “CD33 LIGANDS SUITABLE FOR INCORPORATION INTO CARRIERS” (GLYCOMIMETICS, INC., priority 2020, published 2023)
